The structures appear in SMILES notation. Counter-ions that a name gives are not always drawn.

The values below come from patent US6344464B1, “Use of tetrahydropyridine derivatives to prepare medicines for treating diseases causing demyelination” (Sanofi-Synthelabo, priority 1997, dated 2002).

Data set [1] deals with experimental allergic encephalitis (EAE). Briefly: experimental allergic encephalitis (EAE) model induced by intraplantar myelin basic protein (fragment 68-84) in Freund's complete adjuvant. As to conditions: EAE in Lewis rats, administered orally from day zero of induction. Type of data set: in vivo. An excerpt: The activity of the compounds of formula (I) was investigated in the model of experimental allergic encephalitis (EAE) induced in Lewis rats by the intraplantar administration of myelin basic protein (MBP) (fragment 68-84) in a Freund's complete adjuvant (FCA) enriched in Mycobacterium tuberculosis, according to the protocol published by Martin and Near (Journal of Neuroimmunology, 1995, 241-245).
EAE is an inflammatory autoimmune disease of the central nervous system which presents demyelinating lesions reminiscent of human multiple sclerosis.

On to `FC(F)(F)c1cccc(C2=CCN(CC(c3ccccc3)c3ccccc3)CC2)c1` (as salt: hydrochloride), for which the melting point (usually the temperature of the solid-liquid transition) was in the range of 207 to 210 °C.
The same measure, in the same setting: with `CCCCCc1ccc(CCN2CC=C(c3cccc(C(F)(F)F)c3)CC2)cc1C` (as salt: oxalate) the figure was 140 to 143 °C.
For the compound `Cl.FC(F)(F)c1cccc(C2=CCN(CCc3ccc4ccccc4c3)CC2)c1` [1-(2-naphth-2-ylethyl)-4-(3-trifluoromethylphenyl)-1,2,3,6-tetrahydropyridine hydrochloride], in data set [1], the “severity of the disease (paralysis of the back paws)” value was “statistically less severe”. For the same compound, the “weight loss of the treated animals” value in data set [1] (compared with animals treated with the vehicle only) is on record as “significantly lower”.
